Patent US6767708B1, “Stabilized aqueous steroid immunoassay standards” (Abbott Laboratories, priority 1994, dated 2004)

Experiment: Stability of progesterone in charcoal stripped human serum stressed at 37° C. (percent loss by IMx Progesterone immunoassay)
Format: physicochemical
Details: for Reduction in % loss of progesterone over time by addition of chelator compared to no added reagent: days 0, 3, 8, 15 and 29, FIG. 1; for Percent loss of progesterone: 5 ng/mL progesterone in charcoal stripped human serum, after 29 days, relative to frozen aliquot
Method: Fifteen microliters (15 μL) of a serum sample were mixed with 80 μL of progesterone sample buffer, 80 μL of an anti-progesterone antibody coated microparticle suspension and 75 μL of IMx® Buffer. The reaction mixture was incubated for 20.8 minutes at 37° C. Progesterone sample buffer was an aqueous pH 2.8 solution of 2.25 M glycine, 0.5 μg/mL of 5-∝-dihydrotestosterone, 0.2% (w/v) saponin, 0.1 M sodium chloride and 0.1% methyl isothiazolinone (available from Rohm and Haas, Philadelphia, Pa.). The anti-progesterone antibody (available from University of Surry, Australia) coated microparticle suspension contained 0.001% solids (microparticles available from Seradyne, Indianapolis, Ind.) suspended in a buffer that was a pH 6.5 aqueous solution of 0.5 M morpholinoethanesulphonic acid (MES), 0.1 M sodium chloride, 10% sucrose, 2% bovine serum albumin (available from Intergen, Hawthorne, N.Y.), 0.1 mg/mL sheep IgG (50% ammonium sulfate cut of sheep serum obtained from Irvine Scientific, Santa Ana, Calif.) and 0.2% sodium azide.
One hundred seventy five microliters (175 μL) of the reaction mixture were transferred to the fiber matrix of an IMx® disposable cartridge. The microparticles were then washed with IMx® Buffer. Sixty microliters (60 μL) of 17-hydroxyprogesterone-3-(O-carboxymethyl)oxime alkaline phosphatase conjugate solution were added to the matrix, the reaction was incubated for 8 seconds at 37° C., and then washed again with IMx® Buffer. The conjugate solution contained 17-hydroxyprogesterone (available from Steraloids, Wilton, N.H.) coupled to alkaline phosphatase (available from Boehringer Mannheim, Germany) by means of the EDAC coupling procedure as described in U.S. Pat. No. 5,342,760. The conjugate solution was a pH 7.4 aqueous solution of 50 mM tris, 100 mM sodium chloride, 10 mM magnesium chloride, 0.1 mM zinc chloride, 0.5% casein (available from Sigma Chemical, St. Louis, Mo.) and 0.1% sodium azide containing sufficient conjugate to give a certain signal strength when utilized in an assay of sample free of analyte.
The addition of 4-methylumbelliferone phosphate and quantification of the rate of 4 methylumbelliferone formation was as described in Example 1. Using calibrators containing 0, 1, 4, 10, 20, and 40ng/mL of progesterone a standard curve was constructed.
Test samples were incubated at 37° C. and observed over a period of days or weeks.
Charcoal stripped human serum as prepared in Example 3 (non-alkaline shocked) (10 mL) was aliquoted into glass scintillation vials and various metal chelators were added to the following final concentrations:
Samples were incubated on a rocker for 12 min. at room temperature and then spiked to 5 ng/mL with 10 μg/mL progesterone (available from Sigma Chemical, Saint Louis, Mo.) prepared in an ethanol stock solution. Samples were assayed for baseline concentrations of progesterone following an 8 min. incubation on a rocker at room temperature. Four 1.0 mL aliquots of each composition were placed in TDx® microcentrifuge tubes (available from Abbott Laboratories, Abbott Park, Ill.) and stored frozen −20° C. The scintillation vials were incubated at 37° C. On the days indicated, aliquots were thawed and tested with the corresponding aliquots drawn from the vials stored at 37° C. to assess percent loss.
Percent loss (% loss) is an absolute determination of the loss of progesterone in the stressed sample relative to the frozen aliquot. […]

| SMILES | Reduction in % loss of progesterone (ranking of chelators) (10 mM DETP, charcoal stripped human serum) | Reduction in % loss of progesterone over time by addition of chelator compared to no added reagent (charcoal stripped human serum) | Percent loss of progesterone (10 mM DETP) | Percent loss of progesterone (no reagent added) |
| --- | --- | --- | --- | --- |
| O=C(O)CN(CCN(CC(=O)O)CC(=O)O)CCN(CC(=O)O)CC(=O)O [DETP, diethylenetriaminepentaacetic acid] | most effective | reduction in % loss | – | – |
| O=C(O)CN(CCN(CC(=O)O)CC(=O)O)CC(=O)O [EDTA, ethylenediaminetetraacetic acid] | – | reduction in % loss | – | – |
| CC(=O)[C@H]1CC[C@H]2[C@@H]3CCC4=CC(=O)CC[C@]4(C)[C@H]3CC[C@]12C [progesterone] | – | – | eliminated | ~80% |
